In patent publication US20250122171A1, “Substituted Amine Compounds, Compositions and Methods of Use” (Deep Apple Therapeutics, Inc., priority 2023, published 2025):

What follows are compounds tested against T1, human MRGPRX2 (Homo sapiens, UniProt Q96LB1) (assay: MRGPRX2 Activity Assay (IP-1 HTRF, antagonist mode)). Settings: FlpIn TRex-MRGPRX2-HEK293 cells; versus 1 μM Cortistatin-14 agonist; 30 minutes preincubation.
T1 construct: expressed in transfected cells; host or cells: FlpIn TRex HEK293 (TRex-MRGPRX2-HEK), doxycycline-induced
T1 sequence (Q96LB1 1-330): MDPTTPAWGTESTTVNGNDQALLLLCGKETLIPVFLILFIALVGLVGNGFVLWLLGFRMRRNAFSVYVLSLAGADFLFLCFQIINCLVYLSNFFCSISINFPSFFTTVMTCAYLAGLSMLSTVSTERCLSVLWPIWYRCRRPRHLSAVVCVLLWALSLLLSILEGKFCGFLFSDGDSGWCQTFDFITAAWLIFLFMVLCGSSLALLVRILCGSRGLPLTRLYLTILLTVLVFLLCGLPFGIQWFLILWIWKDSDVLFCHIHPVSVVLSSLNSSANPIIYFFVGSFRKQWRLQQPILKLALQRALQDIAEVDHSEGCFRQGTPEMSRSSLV
Format: cell-based
Procedure, shortened: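 Doxycycline-induced (100 ng/mL, 18-24 h) TRex HEK293 cells stably expressing human MRGPRX2, in HBSS/20 mM HEPES/0.1% BSA/10 mM LiCl. Compounds (top final 30 uM, 1% DMSO) preincubated 30 min, then agonist stimulation 1 h at 37° C without wash. IP-1 accumulation read by HTRF; IC50 from 4-parameter fit.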

`C[C@@H](C(=O)Nc1cn(Cc2cc(Cl)cc(Cl)c2)cn1)N1CCC(F)(F)[C@@H](c2cc[n+]([O-])cc2)C1` [Compound 50, 4-((S)-1-((S)-1-((1-(3,5-dichlorobenzyl)-1H-imidazol-4-yl)amino)-1-oxopropan-2-yl)-4,4-difluoropiperidin-3-yl)pyridine 1-oxide] and `C[C@@H](C(=O)Nc1cn(Cc2cccc(F)c2Cl)cn1)N1CCC(F)(F)[C@@H](c2cc[n+]([O-])cc2)C1` [Compound 51, 4-((S)-1-((S)-1-((1-(2-chloro-3-fluorobenzyl)-1H-imidazol-4-yl)amino)-1-oxopropan-2-yl)-4,4-difluoropiperidin-3-yl)pyridine 1-oxide] are within 1.5-fold of each other in IC50: 45 nM for the first, 34 nM for the second.

Compared with `[2H]C([2H])(c1cc(F)cc(F)c1)n1cnc(NC(=O)[C@H](C)N2CCC(F)(F)[C@@H](c3cc[n+]([O-])cc3)C2)c1` [Compound 52, 4-((S)-1-((S)-1-((1-((3,5-difluorophenyl)methyl-d2)-1H-imidazol-4-yl)amino)-1-oxopropan-2-yl)-4,4-difluoropiperidin-3-yl)pyridine 1-oxide], `C[C@@H](C(=O)Nc1cn(Cc2cc(F)ccc2C(F)(F)F)cn1)N1CCC(F)(F)[C@@H](c2cc[n+]([O-])cc2)C1` [Compound 62, 4-((S)-4,4-difluoro-1-((S)-1-((1-(5-fluoro-2-(trifluoromethyl)benzyl)-1H-imidazol-4-yl)amino)-1-oxopropan-2-yl)piperidin-3-yl)pyridine 1-oxide] is 12-fold higher in IC50: 22 nM for the first, 267 nM for the second. The first is the more potent here.

`C[C@@H](C(=O)Nc1cn(Cc2ccncc2Cl)cn1)N1CCC(F)(F)[C@@H](c2cc[n+]([O-])cc2)C1` [Compound 63, 4-((S)-1-((S)-1-((1-((3-chloropyridin-4-yl)methyl)-1H-imidazol-4-yl)amino)-1-oxopropan-2-yl)-4,4-difluoropiperidin-3-yl)pyridine 1-oxide] and `C[C@@H](C(=O)Nc1cn(Cc2cccc(Cl)c2F)cn1)N1CCC(F)(F)[C@@H](c2cc[n+]([O-])cc2)C1` [Compound 64, 4-((S)-1-((S)-1-((1-(3-chloro-2-fluorobenzyl)-1H-imidazol-4-yl)amino)-1-oxopropan-2-yl)-4,4-difluoropiperidin-3-yl)pyridine 1-oxide] are within 1.5-fold of each other in IC50: 114 nM for the first, 78 nM for the second.

First: C[C@@H](C(=O)Nc1cn(Cc2cc(F)c(F)cc2F)cn1)N1CCC(F)(F)[C@@H](c2cc[n+]([O-])cc2)C1 [Compound 65, 4-((S)-4,4-difluoro-1-((S)-1-oxo-1-((1-(2,4,5-trifluorobenzyl)-1H-imidazol-4-yl)amino)propan-2-yl)piperidin-3-yl)pyridine 1-oxide]
Second: C[C@@H](C(=O)Nc1cn(Cc2cccc(Cl)c2Cl)cn1)N1CCC(F)(F)[C@@H](c2cc[n+]([O-])cc2)C1 [Compound 66, 4-((S)-1-((S)-1-((1-(2,3-dichlorobenzyl)-1H-imidazol-4-yl)amino)-1-oxopropan-2-yl)-4,4-difluoropiperidin-3-yl)pyridine 1-oxide]
The IC50 of the first is 7.1-fold higher: 504 nM for the first, 71 nM for the second.

Going from `C[C@@H](C(=O)Nc1cn(-c2cc(F)cc(F)c2)cn1)N1CCC(F)(F)[C@@H](c2cc[n+]([O-])cc2)C1` [Compound 75, 4-((S)-1-((S)-1-((1-(3,5-difluorophenyl)-1H-imidazol-4-yl)amino)-1-oxopropan-2-yl)-4,4-difluoropiperidin-3-yl)pyridine 1-oxide] to `C[C@@H](C(=O)Nc1cn(Cc2cc(F)cc(F)c2)c(C(F)F)n1)N1CCC(F)(F)CC1` [Compound 492, (S)—N-(1-(3,5-difluorobenzyl)-2-(difluoromethyl)-1H-imidazol-4-yl)-2-(4,4-difluoropiperidin-1-yl)propanamide], the IC50 falls from 513 nM to 35 nM (15-fold). The second is the more potent here.

Compared with `CNCc1cc(C2CN([C@@H](C)C(=O)Nc3cn4c(n3)CC[C@@H]4c3cc(F)cc(F)c3)CCC2(F)F)c[nH]c1=O` (stereo partly drawn) [Compound 529, (2S)-2-(4,4-difluoro-3-(5-((methylamino)methyl)-6-oxo-1,6-dihydropyridin-3-yl)piperidin-1-yl)-N—((R)-5-(3,5-difluorophenyl)-6,7-dihydro-5H-pyrrolo[1,2-a]imidazol-2-yl)propanamide], “(2S)-2-[(3R)-4,4-difluoro-3-(1-methyl-6-oxopyridin-3-yl)piperidin-1-yl]-N-{1-[(3,5-difluorophenyl)methyl]imidazol-4-yl}propanamide [Compound 78]” is higher in IC50: 80 nM for the first, over 30000 nM for the second. The first is the more potent here.

Compared with “(R)-2-((S)-4,4-difluoro-3-(6-oxo-1,6-dihydropyridin-3-yl)piperidin-1-yl)-N-(1-(3,5-difluorobenzyl)-1H-imidazol-4-yl)propanamide [Compound 79]”, “(S)-2-((S)-4,4-difluoro-3-(6-oxo-1,6-dihydropyridin-3-yl)piperidin-1-yl)-N-(1-(3,5-difluorobenzyl)-1H-imidazol-4-yl)propanamide [Compound 76]” is 8.2-fold lower in IC50: 18100 nM for the first, 2220 nM for the second. The second is the more potent here.

Each compound was assayed on LAD-2 cells (assay: LAD2 Degranulation Assay (Protocol 2), β-hexosaminidase release). Settings: Homo sapiens, 0.5 μM Cortistatin-14, 2 h preincubation, cells without SCF 18-24 hours, top concentration 3 μM.
Format: cell-based
Protocol: LAD-2 cells were maintained at 37° C. with 5% CO2 and grown in complete StemPro-34 media supplemented with 1% L-Glutamate, 1% penicillin/streptomycin, and 250 ng/mL human SCF.
18-24 hours prior to experiment, LAD-2 cells were collected and transferred to growth media without SCF. On the day of experiment, cells were collected by centrifugation and seeded in 384-well assay plates, at 4,000 cells per well in 17 μl freshly made assay buffer (10 mM HEPES, 137 mM NaCl, 2.7 mM KCl, 1.8 mM CaCl2), 1.0 mM MgCl2, 5.6 mM glucose, 0.4 mM NaH2PO4, 0.04% BSA, pH=7.40). For dose-response assays, compounds solubilized in 100% DMSO at 30 mM were serially diluted (1:3) first in 100% DMSO, and 2 intermediate dilutions with assay buffer were used to establish a final top concentration of 3 μM (in assay plate). For single point assays, dilution of DMSO stocks to 250 nM (in assay plate) was performed in the same manner as described for dose-response assays. Final DMSO concentration was kept constant at 0.1% across plates for all assays. Cortistatin-14 at 30 mM stock concentration was solubilized in HBSS+0.1% BSA, stored at −20° C. in 5 μl aliquots and discarded after one freeze-thaw cycle. Final concentration of agonist used in both dose-response and single point assays was 0.5 μM, prepared in assay buffer.
Antagonist equilibrium was established with 2 h preincubation, followed by no wash, direct addition, and stimulation of agonist for 30 minutes at 37° C. For detection of β-hexosaminidase activity, assay plates were centrifuged and 5 μl of cell-free supernatant from each assay well was transferred to a black-walled black-bottomed 384-well plate. Substrate solution (1 mM 4-Methylumbelliferyl N-acetyl-β-D-glucosaminide in citrate buffer, pH=4.5, […]) was added to each well and plates were incubated for 1 hour at 37° C. The plate was read on an EnVision XCite plate reader for umbelliferone fluorescence intensity (λex=355 nm, λem=460 nm). Background-subtracted data was analyzed using either GraphPad Prism or a custom Python script to calculate IC50 using either Log[Antagonist] vs. response (4 parameter) nonlinear regression (dose-response assays) or % control β-hexosaminidase activity (single point assays).

Going from `C[C@@H](C(=O)Nc1cn2c(n1)CC[C@H]2c1cc(F)ccc1F)N1CCC(F)(F)[C@@H](c2ccc(=O)[nH]c2)C1` (single isomer, unassigned) [Compound 504] to `C[C@@H](C(=O)Nc1cn2c(n1)CC[C@@H]2c1ccc(F)cc1F)N1CCC(F)(F)[C@@H](c2ccc(=O)[nH]c2)C1` (single isomer, unassigned) [Compound 505], the IC50 rises from 31 nM to over 3000 nM. The first is the more potent here.

First: C[C@@H](C(=O)Nc1cn2c(n1)CC[C@H]2c1ccc(F)cc1F)N1CCC(F)(F)[C@@H](c2ccc(=O)[nH]c2)C1 (single isomer, unassigned) [Compound 506]
Second: C[C@@H](C(=O)Nc1cc2n(n1)CC[C@@H]2c1cc(F)cc(F)c1)N1CCC(F)(F)[C@@H](c2ccc(=O)[nH]c2)C1 (single isomer, unassigned) [Compound 530]
The IC50 of the first is 37-fold higher: 30 nM for the first, 0.81 nM for the second. The second is the more potent here.

Same assay, conditions: Homo sapiens, single point 250 nM, 0.5 μM Cortistatin-14, % control β-hexosaminidase activity

First: C[C@@H](C(=O)Nc1nc2n(n1)[C@@H](c1cc(F)cc(F)c1)CC2)N1CCC(F)(F)[C@@H](c2ccc(=O)[nH]c2)C1 (single isomer, unassigned) [Compound 501]
Second: C[C@@H](C(=O)Nc1nc2n(n1)[C@H](c1cc(F)cc(F)c1)CC2)N1CCC(F)(F)[C@@H](c2ccc(=O)[nH]c2)C1 (single isomer, unassigned) [Compound 502]
The activity at 0.25 µM of the first is higher: 101% for the first, 44% for the second.

Going from `C[C@@H](C(=O)Nc1cn2c(n1)CC[C@@H]2c1cc(F)ccc1F)N1CCC(F)(F)[C@@H](c2ccc(=O)[nH]c2)C1` (single isomer, unassigned) [Compound 503] to `C[C@@H](C(=O)Nc1cn2c(n1)CC[C@H]2c1cc(F)ccc1F)N1CCC(F)(F)[C@@H](c2ccc(=O)[nH]c2)C1` (single isomer, unassigned) [Compound 504], the activity at 0.25 µM falls from 105% to 13%.

Compared with `C[C@@H](C(=O)Nc1cn2c(n1)CC[C@@H]2c1ccc(F)cc1F)N1CCC(F)(F)[C@@H](c2ccc(=O)[nH]c2)C1` (single isomer, unassigned) [Compound 505], `C[C@@H](C(=O)Nc1cn2c(n1)CCC[C@@H]2c1cc(F)cc(F)c1)N1CCC(F)(F)[C@@H](c2ccc(=O)[nH]c2)C1` (single isomer, unassigned) [Compound 507] is higher in activity at 0.25 µM: 106% for the first, 130% for the second.

Going from `C[C@@H](C(=O)Nc1cn2c(n1)CCC[C@H]2c1cc(F)cc(F)c1)N1CCC(F)(F)[C@@H](c2ccc(=O)[nH]c2)C1` (single isomer, unassigned) [Compound 508] to `C[C@@H](C(=O)Nc1cn2c(n1)CC[C@@H]2c1cc(F)cc(F)c1)N1CCC(F)(F)[C@@H](c2c[nH]c(=O)c([C@H](N)C(F)F)c2)C1` (single isomer, unassigned) [Compound 536], the activity at 0.25 µM falls from 110% to 89%.

First: C[C@@H](C(=O)Nc1cn2c(n1)CC[C@@H]2c1cc(F)cc(F)c1)N1CCC(F)(F)CC1 (single isomer, unassigned) [Compound 509]
Second: C[C@@H](C(=O)Nc1cn2c(n1)CC[C@H]2c1cc(F)cc(F)c1)N1CCC(F)(F)CC1 (single isomer, unassigned) [Compound 510]
The activity at 0.25 µM of the first is lower: 11% for the first, 87% for the second.
